From US9126945B2, “N-(3-carbamoylphenly)-1H-pyrazole-5-carboxamide derivatives and the use thereof for controlling animal pests” (BAYER INTELLECTUAL PROPERTY GMBH, priority 2011, dated 2015)

Key:
Assay type in all cases: in vivo
Boophilus microplus = Boophilus microplus test (BOOPMI injection); details: for % Activity dat: BOOPMI injection, 7 dat
Description: Boophilus microplus Test (BOOPMI Injection)
(§1) Solvent: dimethyl sulphoxide
The active compound solution is injected into the abdomen (Boophilus microplus), and the animals are transferred into dishes and stored in a climate-controlled room. The activity is assessed by laying of fertile eggs.
The active compound solution is injected into the abdomen (Boophilus microplus), and the animals are transferred into dishes and stored in a climate-controlled room.
The activity is assessed by laying of fertile eggs. 100% means that none of the ticks has laid any fertile eggs.

[1] = tested on: Boophilus microplus females of the SP-resistant Parkhurst strain; assay: Boophilus microplus test (DIP); details: 100 ppm
Description: Boophilus microplus Test (DIP)
Test animals: adult engorged Boophilus microplus females of the SP-resistant Parkhurst strain
as §1
10 mg of active compound are dissolved in 0.5 ml of dimethyl sulphoxide. For the purpose of preparing a suitable formulation, the active compound solution is diluted with water to the concentration desired in each case.
This active compound preparation is pipetted into tubes. 8-10 ticks are transferred into a further tube with holes. The tube is immersed into the active compound formulation, and all ticks are completely wetted. After the liquid has rum off, the ticks are transferred to filter discs in plastic dishes and kept in a climatized room. The activity is assessed after 7 days by laying of fertile eggs. Eggs whose fertility is not outwardly visible are stored in glass tubes in a climate-controlled cabinet until the larvae hatch. An efficacy of 100% means that none of the ticks has laid any fertile eggs.
10 mg of active compound are dissolved in 0.5 ml of dimethyl sulphoxide. For the purpose of preparing a suitable formulation, the active compound solution is diluted with water to the concentration desired in each case (in ppm).
This active compound preparation is pipetted into tubes. 8-10 ticks are transferred into a further tube with holes. The tube is immersed into the active compound formulation, and all ticks are completely wetted. After the liquid has run out, the ticks are transferred onto filter discs in plastic dishes and stored in a climate-controlled room.
The activity is assessed after the desired time by laying of fertile eggs. Eggs whose fertility is not evident from the outside are kept in glass tubes in a climate-controlled cabinet until the larvae have hatched. An effect of 100% means that none of the ticks has laid any fertile eggs.

Tetranychus urticae = Tetranychus urticae spray test, OP-resistant (TETRUR), bean plants, ppm; details: 168 h, 7 dat
Excerpt: Tetranychus urticae Spray Test, OP-Resistant (TETRUR)
Solvent: 7 parts by weight of dimethylformamide
Emulsifier: 2 parts by weight of alkylaryl polyglycol ether
If the addition of ammonium salts or/and penetrants is required, these are in each case added in a concentration of 1000 ppm to the solution of the preparation.

Cn1nc(C(F)(F)C(F)(F)F)c(C(F)(F)F)c1C(=O)Nc1ccc(Cl)c(C(=O)NC2(C#N)CC2)c1 [Example 10]
efficacy in % (laying of fertile eggs) (Boophilus microplus; 20 μg/animal, after 7 days): 100% | % Activity dat (Boophilus microplus; 0.16 μg/animal): 80% | % Activity dat (Boophilus microplus; 0.8 μg/animal): 100% | efficacy in % (laying of fertile eggs) ([1]; after 7 days): 100% | inhibition at 100 ppm ([1]; Rhipicephalus microplus, 168 h, BOOPMI DIP, 7 dat): 100% | inhibition at 4 ppm (Tetranychus urticae; 4 ppm): 100% | inhibition at 20 ppm (Tetranychus urticae; 20 ppm): 100%
